These results are taken from ChEMBL document CHEMBL3867472, “Discovery of benzofuran propanoic acid GPR120 agonists: From uHTS hit to mechanism-based pharmacodynamic effects” (Bioorg Med Chem Lett, 2016).

Assay [1] deals with T1, Free fatty acid receptor 4 (Mus musculus, UniProt Q7TMA4).
T1 sequence (Q7TMA4 whole entry): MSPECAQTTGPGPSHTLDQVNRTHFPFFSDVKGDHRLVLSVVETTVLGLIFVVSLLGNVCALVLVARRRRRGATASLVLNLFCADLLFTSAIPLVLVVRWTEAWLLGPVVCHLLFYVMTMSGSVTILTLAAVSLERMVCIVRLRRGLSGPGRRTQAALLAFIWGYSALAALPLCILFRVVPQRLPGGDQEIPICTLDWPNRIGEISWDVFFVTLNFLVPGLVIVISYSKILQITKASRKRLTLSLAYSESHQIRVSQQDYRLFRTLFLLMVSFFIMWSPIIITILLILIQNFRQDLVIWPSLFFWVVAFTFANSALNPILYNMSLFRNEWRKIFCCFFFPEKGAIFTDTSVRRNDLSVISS
As to the kind of experiment: Agonist activity at mouse GPR120 expressed in CHOK1 cells measured after 60 mins by IP1-HTRF assay. Format: functional, cell-based, CHO-K1.

Assay [2] has as its target T2, Free fatty acid receptor 1 (Homo sapiens, UniProt O14842). As to the kind of experiment: Agonist activity at human GPR40 measured after 60 mins by IP1-HTRF assay. Format: functional.
The target of assay [3] is T3, Free fatty acid receptor 4 (Homo sapiens, UniProt Q5NUL3).
T3 sequence (Q5NUL3 whole entry): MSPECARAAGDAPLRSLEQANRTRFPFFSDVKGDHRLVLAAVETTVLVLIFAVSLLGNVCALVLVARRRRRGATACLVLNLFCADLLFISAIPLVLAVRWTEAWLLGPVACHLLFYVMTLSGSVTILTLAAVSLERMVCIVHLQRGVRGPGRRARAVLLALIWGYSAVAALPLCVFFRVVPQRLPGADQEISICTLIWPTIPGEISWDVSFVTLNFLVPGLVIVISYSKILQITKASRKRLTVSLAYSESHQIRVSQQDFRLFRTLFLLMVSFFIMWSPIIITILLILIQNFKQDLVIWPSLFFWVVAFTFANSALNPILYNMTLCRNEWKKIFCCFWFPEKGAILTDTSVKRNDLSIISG
The assay can be described thus: Agonist activity at human GPR120 expressed in CHOK1 cells measured after 60 mins by IP1-HTRF assay. It counts as functional, cell-based, CHO-K1. A general note: In TR-FRET formats the signal depends on donor and acceptor labels being close together.

The target in assay [4] is T4, Free fatty acid receptor 4 (Mus musculus) (UniProt Q7TMA4).
T4 sequence (whole entry): T1 sequence (Q7TMA4 whole entry)
The assay can be described thus: Agonist activity at mouse GPR120 expressed in CHOK1 cells measured after 60 mins by IP1-HTRF assay relative to basal level. It counts as functional, cell-based. The arrangement: concentration or dose not given beside the values. The following applies: CHO-K1.

The target of assay [5] is T2, Free fatty acid receptor 1. The assay can be described thus: Agonist activity at human GPR40 measured after 60 mins by IP1-HTRF assay relative to basal level. It counts as functional. The arrangement: concentration or dose not given beside the values.
Assay [6] has as its target T5, Free fatty acid receptor 4 (Homo sapiens) (UniProt Q5NUL3).
T5 sequence (whole entry): T3 sequence (Q5NUL3 whole entry)
As to the kind of experiment: Agonist activity at human GPR120 expressed in CHOK1 cells measured after 60 mins by IP1-HTRF assay relative to basal level. The following applies: CHO-K1. Format: functional, cell-based. The arrangement: concentration or dose not given beside the values.

The structures appear in SMILES notation.

T2 sequence (O14842 whole entry): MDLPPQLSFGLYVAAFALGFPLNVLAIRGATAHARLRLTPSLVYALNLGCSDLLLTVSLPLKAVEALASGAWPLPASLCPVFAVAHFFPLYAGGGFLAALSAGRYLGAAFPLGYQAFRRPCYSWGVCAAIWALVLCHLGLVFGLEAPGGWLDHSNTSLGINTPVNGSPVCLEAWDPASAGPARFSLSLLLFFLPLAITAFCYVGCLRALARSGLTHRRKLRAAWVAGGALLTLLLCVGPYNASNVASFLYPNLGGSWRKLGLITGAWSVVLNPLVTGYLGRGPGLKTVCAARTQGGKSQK

On to `O=C(O)CCC1Cc2cc(-c3cc(OC(F)(F)F)ccc3F)ccc2O1` (stereo in doubt; 44) [listing 1 of 2 here], for which the concentration giving a half-maximal response (EC50) (commonly the midpoint of the concentration-response curve) in assay [1] was 31 nM; in assay [2], 1370 nM; in assay [3], 77 nM.

For `Fc1ccc(OC(F)(F)F)cc1-c1ccc2oc(CCc3nn[nH]n3)cc2c1`, the EC50 in assay [1] is 316 nM; in assay [2] it was greater than 9950 nM; in assay [3], greater than 9950 nM. Also, in assay [4], the Activity was found to be 28%.

In the case of `O=C(O)CCC1Cc2cc(-c3cc(OC(F)(F)F)ccc3F)ccc2O1` (stereo in doubt; 45) [listing 1 of 2 here], the Activity in assay [5] was 91%; in assay [6], 49%; in assay [4] it was 65%.

For `O=C(O)CCCOc1ccc(-c2cc(OC3CC3)ccc2F)cc1`, the Activity worked out at 68% in assay [6] and 61% in assay [4]. Moreover, the EC50 was 32 nM in assay [1], greater than 9950 nM in assay [2] and 66 nM in assay [3].

As to `O=C(O)CCc1cc2cc(-c3cccc(OC4CCC4)c3)ccc2o1`, the Activity amounted to 40% in assay [5], 65% in assay [6] and 66% in assay [4]. Also, the EC50 in assay [1] worked out at 35 nM; in assay [2] it was 2500 nM; in assay [3], 153 nM.

In the case of `Cc1cc(-c2cc(OC(F)(F)F)ccc2F)ccc1OCCCC(=O)O`, the Activity was 34% in assay [5], 52% in assay [6] and 37% in assay [4]. The figures for the EC50 in assay [1], in assay [2] and in assay [3] were 79 nM, 9260 nM and 308 nM, respectively.

As for `CCOc1ccc(F)c(-c2ccc(OCCCC(=O)O)cc2)c1`, the values for the Activity in assay [5], in assay [6] and in assay [4] were 22%, 71% and 58%, respectively. Besides, the EC50 was 140 nM in assay [1], 3190 nM in assay [2] and 290 nM in assay [3].

With `Cc1cc(-c2cc(OC(F)(F)F)ccc2F)cc(C)c1OCCCC(=O)O`, the Activity in assay [6] stood at 87%; in assay [4] it was 86%. In addition, the concentration giving a half-maximal response (EC50) was 47 nM in assay [1], greater than 9950 nM in assay [2] and 149 nM in assay [3].

Turning to `O=C(O)CCc1cc2cc(-c3cc(C(=O)C4CC4)ccc3F)ccc2o1`, the Activity worked out at 92% in assay [6] and 75% in assay [4]. The results for the 50% effective concentration (EC50) in assay [1], in assay [2] and in assay [3] were 22 nM, greater than 9950 nM and 97 nM, respectively.

As for `O=C(O)CCC1Cc2cc(-c3cc(OC(F)(F)F)ccc3F)ccc2O1` (stereo in doubt; 44) [listing 2 of 2 here], the Activity in assay [5] amounted to 24%; in assay [6], 101%; in assay [4], 68%.

Take `O=C(O)CCCOc1c(F)cc(-c2cc(OC(F)(F)F)ccc2F)cc1F`: the Activity in assay [5] amounted to 46%; in assay [6], 69%; in assay [4] it was 75%. The figures for the EC50 in assay [1], in assay [2] and in assay [3] were 7 nM, 5410 nM and 20 nM, respectively.

With `Cc1cc(-c2cc(OC(F)(F)F)ccc2Cl)ccc1OCCCC(=O)O`, the values for the Activity in assay [5], in assay [6] and in assay [4] were 37%, 57% and 62%, respectively. For the same compound, the EC50 in assay [1] is 131 nM; in assay [2], 6720 nM; in assay [3] it was 185 nM.

Regarding `O=C(O)CCCOc1ccc(-c2cc(Oc3cccc(F)c3)ccc2F)cc1`, the Activity in assay [5] is 110%; in assay [6], 107%; in assay [4], 98%. Besides, the results for the 50% effective concentration (EC50) in assay [1], in assay [2] and in assay [3] were 27 nM, 9460 nM and 60 nM, respectively.

On to `O=C(O)CCCOc1ccc(-c2cccc(OCc3ccccc3)c2)cc1`, for which the concentration giving a half-maximal response (EC50) in assay [1], in assay [2] and in assay [3] was greater than 9950 nM each time.

With `Cc1cc(OCCCC(=O)O)ccc1-c1cc(OC(F)(F)F)ccc1Cl`, the Activity in assay [6] is 32%; in assay [4], 29%. The 50% effective concentration (EC50) is 78 nM in assay [1], greater than 9950 nM in assay [2] and 254 nM in assay [3].

Take `O=C(O)CCCOc1ccc(-c2cc(Oc3cccc(F)c3)ccc2Cl)cc1`: the values for the Activity in assay [5], in assay [6] and in assay [4] were 67%, 80% and 70%, respectively. Also, the EC50 in assay [1] worked out at 34 nM; in assay [2] it was 3350 nM; in assay [3], 198 nM.

With `O=C(O)CCCOc1ccc(-c2cc(Oc3ccccc3)ccc2F)cc1`, the figures for the Activity in assay [5], in assay [6] and in assay [4] were 91%, 71% and 80%, respectively. The values for the EC50 in assay [1], in assay [2] and in assay [3] were 29 nM, 3590 nM and 100 nM, respectively.

For the compound `CC(Cc1cc2cc(-c3cc(OC(F)(F)F)ccc3F)ccc2o1)C(=O)O` (racemic), the results for the Activity in assay [6] and in assay [4] were 10% and 44%, respectively. Moreover, the EC50 in assay [1] is 70 nM; in assay [2], greater than 9950 nM; in assay [3], 83 nM.

Regarding `O=C(O)CCCOc1ccc(-c2ccccc2C(F)(F)F)cc1`, the Activity worked out at 31% in assay [6] and 15% in assay [4]. In addition, the EC50 in assay [1] was 2190 nM; in assay [2], greater than 9950 nM; in assay [3], 8170 nM.

Regarding `CC(CC(=O)O)c1cc2cc(-c3cc(OC(F)(F)F)ccc3F)ccc2o1` (racemic), the Activity stood at 24% in assay [6] and 57% in assay [4]. Also, the EC50 in assay [1] was 74 nM; in assay [2], greater than 9950 nM; in assay [3], 819 nM.

For the compound `Cc1cc(OC2CCC2)cc(-c2ccc3oc(CCC(=O)O)cc3c2)c1`, the figures for the Activity in assay [5], in assay [6] and in assay [4] were 51%, 51% and 69%, respectively. The EC50 in assay [1] is 28 nM; in assay [2] it was 2960 nM; in assay [3], 68 nM.

For the compound `O=C(O)c1cc2cc(-c3cc(OC(F)(F)F)ccc3F)ccc2o1`, the concentration giving a half-maximal response (EC50) in assay [1], in assay [2] and in assay [3] was greater than 9950 nM throughout.

Turning to `O=C(O)CCc1cc2cc(-c3cc(OC(F)(F)F)ccc3Cl)ccc2o1`, the Activity is 69% in assay [6] and 76% in assay [4]. The values for the EC50 in assay [1], in assay [2] and in assay [3] were 12 nM, greater than 9950 nM and 102 nM, respectively.

As to `Cc1ccc(Oc2cccc(-c3ccc(OCCCC(=O)O)cc3)c2)cc1`, the Activity in assay [6] is 77%; in assay [4], 83%. The EC50 was 66 nM in assay [1], greater than 9950 nM in assay [2] and 182 nM in assay [3].

Turning to `COc1cccc(Oc2cccc(-c3ccc(OCCCC(=O)O)cc3)c2)c1`, the results for the Activity in assay [5], in assay [6] and in assay [4] were 101%, 19% and 20%, respectively. Moreover, the EC50 in assay [1] came out at 264 nM; in assay [2], 6310 nM; in assay [3] it was 498 nM.

On to `O=C(O)CCC1Cc2cc(-c3cc(OC(F)(F)F)ccc3F)ccc2O1` (stereo in doubt; 45) [listing 2 of 2 here], for which the values for the 50% effective concentration (EC50) in assay [1], in assay [2] and in assay [3] were 106 nM, 1350 nM and 137 nM, respectively.

Take `O=C(O)CCCOc1ccc(-c2cccc(Oc3ccccc3)c2)cc1`: the figures for the Activity in assay [5], in assay [6] and in assay [4] were 54%, 46% and 58%, respectively. Moreover, the EC50 in assay [1] came out at 67 nM; in assay [2], 6800 nM; in assay [3] it was 170 nM.

As to `O=C(O)CCc1cc2cc(-c3cccc(OC(F)(F)F)c3)ccc2o1`, the Activity in assay [5] was 43%; in assay [6], 48%; in assay [4], 59%. Besides, the EC50 in assay [1] was 326 nM; in assay [2] it was 1390 nM; in assay [3] it was 544 nM.

Consider `O=C(O)CCCOc1ccc(-c2cc(OC(F)(F)F)ccc2Cl)c(F)c1`, for which the results for the Activity in assay [6] and in assay [4] were 60% and 66%, respectively. The 50% effective concentration (EC50) is 36 nM in assay [1], greater than 9950 nM in assay [2] and 186 nM in assay [3].

Regarding `O=C(O)CCCOc1ccc(-c2ccccc2OC(F)(F)F)cc1`, the Activity was found to be 19% in assay [6] and 20% in assay [4]. In addition, the EC50 in assay [1] is 1870 nM; in assay [2], greater than 9950 nM; in assay [3], 3000 nM.

Take `O=C(O)CCc1cc2cc(-c3cc(Cl)cc(OC4CCC4)c3)ccc2o1`: the Activity in assay [6] is 50%; in assay [4], 55%. Further, the values for the EC50 in assay [1], in assay [2] and in assay [3] were 64 nM, greater than 9950 nM and 188 nM, respectively.

For `O=C(O)CCCOc1ccc(-c2cc(Oc3cccnc3)ccc2Cl)cc1`, the Activity in assay [6] was found to be 58%; in assay [4] it was 77%. For the same compound, the EC50 in assay [1] was 34 nM; in assay [2] it was greater than 9950 nM; in assay [3] it was 88 nM.

Regarding `O=C(O)CCCOc1ccc(-c2ccccc2Oc2ccccc2)cc1`, the Activity in assay [6] came to 25%; in assay [4], 21%. Also, the figures for the EC50 in assay [1], in assay [2] and in assay [3] were 418 nM, greater than 9950 nM and 546 nM, respectively.
